Experimental data as given in the NIST ThermoML archive (doi:10.1021/acs.jced.6b00750).

Details: Liquid; for mass density: Vibrating wire densiometer; for viscosity: Vibrating wire viscometry

CCCCCCCCCCCCCCCC [hexadecane]
Details | mass density [kg/m3] | viscosity [mPa·s]
298.36 K, 1060 kPa | 769.2 | 3.107
298.36 K, 1080 kPa | 769.2 | 3.109
298.36 K, 10010 kPa | 775 | 3.497
298.36 K, 21090 kPa | 781.2 | 4.032
298.36 K, 30500 kPa | 786.4 | 4.534
298.61 K, 970 kPa | 768.9 | 3.143
298.61 K, 10340 kPa | 774.7 | 3.562
298.61 K, 20570 kPa | 780.8 | 4.041
298.61 K, 30370 kPa | 785.9 | 4.588
323.21 K, 1090 kPa | 751.5 | 1.874
323.21 K, 1250 kPa | 751.7 | 1.872
323.21 K, 21100 kPa | 765.2 | 2.387
323.21 K, 40990 kPa | 776.9 | 2.957
323.21 K, 60490 kPa | 787.1 | 3.598
323.21 K, 80320 kPa | 796 | 4.381
323.21 K, 102810 kPa | 803.3 | 5.08
323.22 K, 990 kPa | 752.4 | 1.878
323.22 K, 20960 kPa | 764.8 | 2.429
323.22 K, 42100 kPa | 777.2 | 3.007
323.22 K, 61170 kPa | 787.4 | 3.666
323.22 K, 81170 kPa | 796 | 4.471
348.2 K, 610 kPa | 734.8 | 1.275
348.2 K, 1010 kPa | 734.4 | 1.255
348.2 K, 1070 kPa | 734.5 | 1.251
348.2 K, 20050 kPa | 749.2 | 1.57
348.2 K, 20370 kPa | 749.8 | 1.595
348.2 K, 40520 kPa | 762.5 | 1.939
348.2 K, 40780 kPa | 762.9 | 1.97
348.2 K, 60680 kPa | 773.7 | 2.356
348.2 K, 62000 kPa | 773.9 | 2.398
348.2 K, 80380 kPa | 783.3 | 2.813
348.2 K, 80450 kPa | 783.5 | 2.806
348.2 K, 100940 kPa | 791.9 | 3.278
373.12 K, 1210 kPa | 717.2 | 0.911
373.12 K, 1240 kPa | 717.3 | 0.91
373.12 K, 20080 kPa | 733.9 | 1.136
373.12 K, 40700 kPa | 748.6 | 1.397
373.12 K, 60760 kPa | 760.8 | 1.678
373.12 K, 80760 kPa | 771.3 | 1.988
373.12 K, 100220 kPa | 780.9 | 2.303
373.25 K, 1370 kPa | 717.7 | 0.926
373.25 K, 19850 kPa | 733.7 | 1.148
373.25 K, 40190 kPa | 748.6 | 1.399
373.25 K, 59970 kPa | 760.4 | 1.692
373.25 K, 81310 kPa | 771.4 | 1.995
398.21 K, 1230 kPa | 700.1 | 0.693
398.21 K, 1670 kPa | 700.4 | 0.694
398.21 K, 20450 kPa | 719.1 | 0.872
398.21 K, 40750 kPa | 735.1 | 1.066
398.21 K, 60560 kPa | 748.2 | 1.265
398.21 K, 80390 kPa | 759.4 | 1.488
398.21 K, 100460 kPa | 769.4 | 1.71
398.28 K, 1050 kPa | 700.3 | 0.697
398.28 K, 21190 kPa | 719.6 | 0.879
398.28 K, 41290 kPa | 735.3 | 1.082
398.28 K, 59990 kPa | 747.8 | 1.267
398.28 K, 80670 kPa | 759.3 | 1.498
423.26 K, 1360 kPa | 682.2 | 0.542
423.26 K, 1420 kPa | 682.4 | 0.544
423.26 K, 20790 kPa | 704.2 | 0.691
423.26 K, 40900 kPa | 721.5 | 0.845
423.26 K, 60040 kPa | 735.2 | 0.998
423.26 K, 80490 kPa | 747.7 | 1.171
423.26 K, 100020 kPa | 758.2 | 1.348
423.31 K, 1460 kPa | 682.9 | 0.554
423.31 K, 20610 kPa | 704.4 | 0.699
423.31 K, 40760 kPa | 721.8 | 0.853
423.31 K, 60120 kPa | 735.2 | 1.012
423.31 K, 80990 kPa | 748.2 | 1.189
448.23 K, 1100 kPa | 664 | 0.437
448.23 K, 1170 kPa | 664.1 | 0.438
448.23 K, 20220 kPa | 688.7 | 0.559
448.23 K, 40500 kPa | 708.1 | 0.689
448.23 K, 60460 kPa | 723.5 | 0.82
448.23 K, 80430 kPa | 736.5 | 0.958
448.23 K, 100270 kPa | 748 | 1.098
448.48 K, 1230 kPa | 663.8 | 0.445
448.48 K, 20750 kPa | 688.9 | 0.571
448.48 K, 40680 kPa | 707.8 | 0.702
448.48 K, 60650 kPa | 723.1 | 0.831
448.48 K, 80720 kPa | 736.2 | 0.97
473.54 K, 1250 kPa | 645.4 | 0.359
473.54 K, 1270 kPa | 645.8 | 0.36
473.54 K, 20770 kPa | 674.2 | 0.469
473.54 K, 40980 kPa | 695.3 | 0.579
473.54 K, 60770 kPa | 711.8 | 0.688
473.54 K, 80500 kPa | 725.5 | 0.803
473.54 K, 101080 kPa | 738.1 | 0.924
473.85 K, 1400 kPa | 645.2 | 0.367
473.85 K, 21260 kPa | 674.3 | 0.478
473.85 K, 41040 kPa | 694.7 | 0.59
473.85 K, 61190 kPa | 711.3 | 0.706
473.85 K, 81710 kPa | 725.7 | 0.815
